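How tested: cells in 96-well plates exposed to compound for 48 hours at five concentrations. TGI marks complete inhibition of growth.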
Assays:
Test in all cases: NCI anticancer screen, dose series, 48 h
[1] = system: SK-MEL-5 melanoma
[2] = system: ACHN renal
[3] = system: MALME-3M melanoma
[4] = system: OVCAR-8 ovarian
[5] = system: IGROV1 ovarian
[6] = system: OVCAR-3 ovarian
[7] = system: PC-3 prostate
[8] = system: HCT-116 colon
[9] = system: MCF7 breast
[10] = system: KM12 colon
[11] = system: CCRF-CEM leukemia
[12] = system: SR leukemia
[13] = system: HCC-2998 colon
[14] = system: SF-295 CNS
[15] = system: RXF 393 renal
[16] = system: K-562 leukemia
[17] = system: SK-MEL-28 melanoma
[18] = system: MDA-MB-435
[19] = system: M14 melanoma
[20] = system: UACC-257 melanoma
[21] = system: OVCAR-5 ovarian
[22] = system: SN12C renal
[23] = system: SNB-75 CNS
[24] = system: OVCAR-4 ovarian
[25] = system: NCI/ADR-RES ovarian
[26] = system: SW-620 colon
[27] = system: HT29 colon
[28] = system: HCT-15 colon
[29] = system: BT-549 breast
[30] = system: NCI-H460 lung
[31] = system: SF-268 CNS
[32] = system: COLO 205 colon
[33] = system: LOX IMVI melanoma
[34] = system: EKVX NSCLC
[35] = system: T-47D breast
[36] = system: HOP-92 NSCLC
[37] = system: RPMI-8226 leukemia
[38] = system: SK-MEL-2 melanoma
[39] = system: SNB-19 CNS
[40] = system: HOP-62 NSCLC
[41] = system: UO-31 renal
[42] = system: U251 CNS
[43] = system: NCI-H522 lung
[44] = system: TK-10 renal
[45] = system: A549 NSCLC
[46] = system: 786-0 renal
[47] = system: HS 578T breast
[48] = system: SF-539 CNS
[49] = system: NCI-H23 lung
[50] = system: UACC-62 melanoma
[51] = system: DU-145 prostate
[52] = system: SK-OV-3 ovarian
[53] = system: CAKI-1 renal
[54] = system: MDA-MB-231 breast
[55] = system: HL-60(TB) leukemia
[56] = system: MOLT-4 leukemia
[57] = system: NCI-H226 lung
[58] = system: A498 renal

Structure (SMILES): CCCCCCCCC[C@@H]1C[C@@H]2CCC3C(C(=O)OC)=C(C)NC(=N1)N32 (stereo not given in full)
- TGI [1]: 20.4 µM
- TGI [2]: 32.1 µM
- TGI [3]: 29 µM
- TGI [4]: 23.7 µM
- TGI [5]: 19.4 µM
- TGI [6]: 11.6 µM
- TGI [7]: 18.3 µM
- TGI [8]: 17.3 µM
- TGI [9]: 15.9 µM
- TGI [10]: 14 µM
- TGI [11]: > 100 µM
- TGI [12]: > 100 µM
- TGI [13]: 8.53 µM
- TGI [14]: 23.6 µM
- TGI [15]: 8.55 µM
- TGI [16]: 72.2 µM
- TGI [17]: > 100 µM
- TGI [18]: 6.04 µM
- TGI [19]: 21.8 µM
- TGI [20]: 27 µM
- TGI [21]: 35.6 µM
- TGI [22]: 32.5 µM
- TGI [23]: 19.8 µM
- TGI [24]: 25.4 µM
- TGI [25]: 52.2 µM
- TGI [26]: > 100 µM
- TGI [27]: 22.2 µM
- TGI [28]: 38.3 µM
- TGI [29]: 24.4 µM
- TGI [30]: 16.3 µM
- TGI [31]: 23.5 µM
- TGI [32]: 15.1 µM
- TGI [33]: 26.5 µM
- TGI [34]: 26.8 µM
- TGI [35]: 25.3 µM
- TGI [36]: 27.3 µM
- TGI [37]: > 100 µM
- TGI [38]: 26.5 µM
- TGI [39]: 18.6 µM
- TGI [40]: 26.9 µM
- TGI [41]: 30.9 µM
- TGI [42]: 16.8 µM
- TGI [43]: 9.82 µM
- TGI [44]: 29.1 µM
- TGI [45]: 32.6 µM
- TGI [46]: 18.9 µM
- TGI [47]: 34.7 µM
- TGI [48]: 12.2 µM
- TGI [49]: 16.3 µM
- TGI [50]: 17.4 µM
- TGI [51]: 21.9 µM
- TGI [52]: 25 µM
- TGI [53]: 37.8 µM
- TGI [54]: 20 µM
- TGI [55]: 26.9 µM
- TGI [56]: > 100 µM
- TGI [57]: 29.2 µM

Structure (SMILES): Cc1ccccc1NC(=O)NC(Oc1ccccc1)(C(F)(F)F)C(F)(F)F
- TGI [2]: > 100 µM
- TGI [5]: > 100 µM
- TGI [8]: > 100 µM
- TGI [11]: > 100 µM
- TGI [12]: > 100 µM
- TGI [13]: > 100 µM
- TGI [15]: > 100 µM
- TGI [16]: > 100 µM
- TGI [17]: > 100 µM
- TGI [18]: > 100 µM
- TGI [19]: > 100 µM
- TGI [20]: > 100 µM
- TGI [21]: > 100 µM
- TGI [23]: > 100 µM
- TGI [25]: > 100 µM
- TGI [27]: > 100 µM
- TGI [29]: > 100 µM
- TGI [31]: > 100 µM
- TGI [32]: > 100 µM
- TGI [58]: > 100 µM
- TGI [35]: > 100 µM
- TGI [37]: > 100 µM
- TGI [38]: > 100 µM
- TGI [39]: > 100 µM
- TGI [41]: > 100 µM
- TGI [42]: > 100 µM
- TGI [46]: > 100 µM
- TGI [47]: > 100 µM
- TGI [48]: > 100 µM
- TGI [49]: > 100 µM
- TGI [52]: > 100 µM
- TGI [53]: 97.5 µM
- TGI [55]: > 100 µM
- TGI [56]: > 100 µM

Structure (SMILES): COc1ccc2nc3cc(Cl)ccc3c(NCCCNCc3cc(OC)c(OC)c(OC)c3)c2c1
- TGI [11]: > 100 µM
- TGI [18]: 3.24 µM
- TGI [21]: 3.11 µM

Structure (SMILES): CC(=O)/C(C=Nc1c(C)n(C)n(-c2ccccc2)c1=O)=C(/C)O
- TGI [1]: > 100 µM
- TGI [2]: > 100 µM
- TGI [3]: > 100 µM
- TGI [4]: > 100 µM
- TGI [5]: > 100 µM
- TGI [6]: > 100 µM
- TGI [7]: > 100 µM
- TGI [8]: > 100 µM
- TGI [9]: > 100 µM
- TGI [10]: > 100 µM
- TGI [11]: > 100 µM
- TGI [12]: > 100 µM
- TGI [13]: > 100 µM
- TGI [14]: > 100 µM
- TGI [15]: > 100 µM
- TGI [16]: > 100 µM
- TGI [18]: > 100 µM
- TGI [19]: > 100 µM
- TGI [20]: > 100 µM
- TGI [21]: > 100 µM
- TGI [22]: > 100 µM
- TGI [23]: > 100 µM
- TGI [24]: > 100 µM
- TGI [25]: > 100 µM
- TGI [26]: > 100 µM
- TGI [28]: > 100 µM
- TGI [29]: > 100 µM
- TGI [32]: > 100 µM
- TGI [58]: > 100 µM
- TGI [33]: > 100 µM
- TGI [34]: > 100 µM
- TGI [36]: > 100 µM
- TGI [37]: > 100 µM
- TGI [38]: > 100 µM
- TGI [39]: > 100 µM
- TGI [41]: > 100 µM
- TGI [42]: > 100 µM
- TGI [43]: > 100 µM
- TGI [44]: > 100 µM
- TGI [45]: > 100 µM
- TGI [46]: > 100 µM
- TGI [48]: > 100 µM
- TGI [49]: > 100 µM
- TGI [50]: > 100 µM
- TGI [51]: > 100 µM
- TGI [52]: > 100 µM
- TGI [53]: > 100 µM
- TGI [54]: > 100 µM
- TGI [55]: > 100 µM
- TGI [56]: > 100 µM
- TGI [57]: > 100 µM
